details: in 2-octyl-1-dodecanol, 2-hexyl-1-decanol, isostearyl alcohol or oleyl alcohol; temperature range of 4 to 50° C.
Method: 50 or 150 parts by weight of tulobuterol was added to each of the following resolvents in such a manner that the total amount of an obtained tulobuterol solution became 1000 parts by weight: 2-octyl-1-dodecanol (manufactured by Cognis Japan Ltd., under the trade name of “EUTANOL G”), 2-hexyl-1-decanol (manufactured by Cognis Japan Ltd., under the trade name of “EUTANOL G16N”), isostearyl alcohol (manufactured by Kokyu Alcohol Kogyo Co., Ltd., under the trade name of “Isostearyl Alcohol EX”), oleyl alcohol (manufactured by Kokyu Alcohol Kogyo Co., Ltd., under the trade name of “Oleyl Alcohol VP”), cetanol (hexadecyl alcohol) (manufactured by NOF Corporation, under the trade name of “NAA-44”), isopropyl myristate (manufactured by Nikko Chemicals Co., Ltd., under the trade name of “IPM-100”), decyl oleate (manufactured by Cognis Japan Ltd., under the trade name of “CETIOL V”), medium chain triglyceride (manufactured by NOF Corporation, under the trade name of “PANACET 800”), polyethylene glycol (manufactured by Maruishi Pharmaceutical Co., Ltd., under the trade name of “MACROGOL 400 (Japanese Pharmacopoeia)”), propylene glycol (manufactured by Maruishi Pharmaceutical Co., Ltd., under the trade name of “Propylene Glycol (Japanese Pharmacopoeia)”), and liquid paraffin (manufactured by Sankei Sangyo K.K., under the trade name of “Liquid Paraffin No. 350”). Each of the thus obtained tulobuterol solutions was kept at 50° C. for 120 minutes, and was then kept at 20° C. for 24 hours, and was further kept at 4° C. for 24 hours.
At this time, the tulobuterol solution was visually observed to see whether crystalline tulobuterol was deposited or not after the completion of each warming of the tulobuterol solution at 50, 20 or 4° C. The results are shown in Table 1 wherein the mark “◯” represents a case where crystalline tulobuterol was not observed, and the mark “X” represents a case where crystalline tulobuterol was observed.
The solubility of each of these drugs in these resolvents was determined in the same manner as in a case where the solubility of tulobuterol in these resolvents was determined.
50 or 150 parts by weight of tyramine (manufactured by Tokyo Chemical Industries Co., Ltd.) was added to each of the above-mentioned resolvents (i.e., 2-octyl-1-dodecanol, isopropyl myristate, polyethylene glycol, and propylene glycol) in such a manner that the total amount of an obtained tyramine solution became 1000 parts by weight. The solubility of tyramine in these resolvents was determined in the same manner as in a case where the solubility of tulobuterol in these resolvents was determined.

SMILES	Stable dissolution in resolvents of the invention
CNC[C@H](O)c1ccc(O)c(O)c1 [epinephrine]	not stably dissolved
CCCCOC(=O)[C@@H](N)Cc1ccc(O)c(O)c1 [levodopa butyl ester]	not stably dissolved
CCOc1ccc(NC(C)=O)cc1 [phenacetin]	not stably dissolved
N[C@@H](Cc1ccccc1)C(=O)O [phenylalanine]	not stably dissolved
CC(C)(C)NCC(O)c1ccccc1Cl (stereo not shown) [tulobuterol]	stably dissolved
NCCc1ccc(O)cc1 [tyramine]	not stably dissolved

same assay, conditions: resolvent cetanol; solution kept at 50° C.

SMILES	Dissolution in cetanol
CC(C)(C)NCC(O)c1ccccc1Cl (stereo not shown) [tulobuterol]	completely dissolved

From patent US20140242151A1, “ADHESIVE SKIN PATCH” (Sekisui Chemical Co., Ltd., priority 2003, published 2014)
